In patent US20260008783A1, “MODULATORS OF FSHR AND USES THEREOF” (Celmatix Inc., priority 2022, published 2026) one finds IC50 data, which are given here for 32 compounds.

The target in the test is T1, Follicle Stimulating Hormone Receptor (FSHR) (Homo sapiens, UniProt P23945).
T1 construct: HA (N); expressed in transfected cells; host or cells: CHO-K1, transient transfection, pHM6 vector (CMV promoter)
T1 sequence (P23945 18-695): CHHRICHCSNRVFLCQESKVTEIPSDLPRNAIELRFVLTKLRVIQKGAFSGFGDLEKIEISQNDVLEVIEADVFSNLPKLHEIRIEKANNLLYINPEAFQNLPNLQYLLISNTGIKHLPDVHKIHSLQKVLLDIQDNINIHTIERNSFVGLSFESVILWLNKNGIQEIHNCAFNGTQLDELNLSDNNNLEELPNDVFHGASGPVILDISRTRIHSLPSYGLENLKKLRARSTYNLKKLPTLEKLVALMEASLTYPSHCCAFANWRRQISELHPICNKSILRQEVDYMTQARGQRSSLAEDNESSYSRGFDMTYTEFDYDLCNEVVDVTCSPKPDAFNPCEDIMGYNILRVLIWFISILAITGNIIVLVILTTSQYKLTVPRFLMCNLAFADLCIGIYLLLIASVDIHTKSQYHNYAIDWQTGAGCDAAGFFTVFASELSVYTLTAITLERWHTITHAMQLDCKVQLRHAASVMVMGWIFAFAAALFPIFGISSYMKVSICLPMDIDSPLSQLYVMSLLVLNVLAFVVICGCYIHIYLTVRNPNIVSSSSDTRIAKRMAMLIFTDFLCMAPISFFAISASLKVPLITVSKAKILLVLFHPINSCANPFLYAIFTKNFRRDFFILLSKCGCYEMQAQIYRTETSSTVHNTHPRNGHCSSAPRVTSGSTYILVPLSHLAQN
Briefly: HTRF cAMP agonist assay, FSHR, transiently transfected CHO-K1 cells. Conditions: CHO-K1 cells transiently expressing human FSHR, read-out: IC50 FSHR LANCE CAMP. It counts as cell-based. A general note: In TR-FRET formats the signal depends on donor and acceptor labels being close together.
As usually defined, the IC50 is the concentration at which inhibition is half-maximal. Consider `COc1cc2c(cc1-c1cncc(C(N)=O)c1)-c1c(c(C(=O)N3CCC(=O)NCC3(C)C)nn1-c1cc(Cl)cc(Cl)c1)CC2` [Compound 8-04A, 5-[1-(3,5-dichlorophenyl)-3-(2,2-dimethyl-5-oxo-1,4-diazepane-1-carbonyl)-7-methoxy-4,5-dihydrobenzo[g]indazol-8-yl]pyridine-3-carboxamide], for which the IC50 amounted to 9.79 nM.
The value for `COc1cc2c(cc1-c1cncc(C(N)=O)c1)-c1c(c(C(=O)NC(C)CO)nn1-c1cc(Cl)cc(Cl)c1)CC2` (centres unmarked) [Compound 8-54A] was 222 nM; that for `COc1cc2c(cc1-c1cncc(C#N)c1)-c1c(c(C(=O)N3CCNC(=O)C3(C)C)nn1-c1cc(Cl)cc(Cl)c1)CC2` [Compound 8-26A] was 10.3 nM.
In the case of `COc1cc2c(cc1-c1cncc(C(N)=O)c1)-c1c(c(C(=O)N3CCOCC3(C)C)nn1-c1cc(Cl)cc(Cl)c1)SC2` [Compound 3-01, 5-[1-(3,5-dichlorophenyl)-3-(3,3-dimethylmorpholine-4-carbonyl)-7-methoxy-5H-isothiochromeno[4,3-c]pyrazol-8-yl]pyridine-3-carboxamide], the IC50 was 6.72 nM.
`COc1cc2c(cc1-c1cncc(C(N)=O)c1)-c1c(c(C(=O)N3COCC3(C)C)nn1-c1cc(Cl)cc(Cl)c1)OC2` [Compound 12-04]: the IC50 stood at 5.09 nM.
With `COc1cc2c(cc1-c1cncc(C(N)=O)c1)-c1c(c(C(=O)N3[C@@H](C)CNC[C@@H]3C)nn1-c1cc(Cl)cc(Cl)c1)CC2` [Compound 8-22], the IC50 amounted to 34.9 nM.
The value for `COc1cc2c(cc1-c1cncc(C(N)=O)c1)-c1c(c(C(=O)N(C)C3CCCC3)nn1-c1cc(Cl)cc(Cl)c1)CC2` [Compound 8-47] was 29.3 nM; that for `COc1cc2c(cc1-c1cncc(C(N)=O)c1)-c1c(c(C(=O)N3[C@H](C)CN(C)C[C@@H]3C)nn1-c1cc(Cl)cc(Cl)c1)CC2` [Compound 12-01] was 14.8 nM; that for `COc1cc2c(cc1-c1cncc(C(N)=O)c1)-c1c(c(C(=O)N(C)C3CCS(=O)(=O)C3)nn1-c1cc(Cl)cc(Cl)c1)CC2` (centres unmarked) [Compound 8-46] was 177 nM.
With `COc1cc2c(cc1-c1cncc(C(N)=O)c1)-c1c(c(C(=O)N3CCC(O)C3(C)C)nn1-c1cc(Cl)cc(Cl)c1)CC2` (centres unmarked) [Compound 8-90A] the figure was 2.15 nM; with `COc1cc2c(cc1-c1cncc(C(N)=O)c1)-c1c(c(C(=O)N(C)C(C)(C)C)nn1-c1cc(Cl)cc(Cl)c1)[S+]([O-])C2` (single isomer, unassigned) [Compound 3-06], 43.4 nM; with `COc1cc2c(cc1-c1cncc(C(N)=O)c1)-c1c(c(C(=O)N3CCCC34COC4)nn1-c1cc(Cl)cc(Cl)c1)CC2` [Compound 8-27], 30 nM.
The value for `CC1(C)C(=O)NCCN1C(=O)c1nn(-c2ccccn2)c2c1CCc1ccc(-c3cccnc3)cc1-2` [Compound 13-01, 3,3-dimethyl-4-[1-(2-pyridyl)-8-(3-pyridyl)-4,5-dihydrobenzo[g]indazole-3-carbonyl]piperazin-2-one] was 6740 nM; that for `COc1cc2c(cc1-c1cncc(C(N)=O)c1)-c1c(c(C(=O)N3CCNC(=O)C3(C)C)nn1CC(C)C)CC2` [Compound 14-03] was 13800 nM; that for `COc1cc2ccc3c(C(=O)N4CCOCC4(C)C)nn(-c4cc(Cl)cc(Cl)c4)c3c2cc1-c1cncc(C(N)=O)c1` [Compound 6-05, 5-[1-(3,5-dichlorophenyl)-3-(3,3-dimethylmorpholine-4-carbonyl)-7-methoxy-benzo[g]indazol-8-yl]pyridine-3-carboxamide] was 5.24 nM.
With `COc1cc2c(cc1-c1cncc(C(N)=O)c1)-c1c(c(C(=O)N(C)CC(F)(F)F)nn1-c1cc(Cl)cc(Cl)c1)CC2` [Compound 8-55], the IC50 stood at 6.56 nM.
With `COc1cc2c(cc1-c1cncc(C(N)=O)c1)-c1c(c(C(=O)N3CCOCC3(C)C)nn1-c1cnccn1)CC2` [Compound 10-06] the figure was 67.4 nM; with `COc1cc2c(cc1-c1cncc(C(N)=O)c1)-c1c(c(C(=O)N(C)C(C)(C)C)nn1-c1cc(Cl)cc(Cl)c1)C2` [Compound 5-02, N-tert-butyl-7-(5-carbamoyl-3-pyridyl)-1-(3,5-dichlorophenyl)-6-methoxy-N-methyl-4H-indeno[1,2-c]pyrazole-3-carboxamide], 197 nM.
The value for `COc1cc2c(cc1-c1cncc(C(N)=O)c1)-c1c(c(C(=O)N3[C@H](C)CNC[C@@H]3C)nn1-c1cc(Cl)cc(Cl)c1)CC2` [Compound 8-21] was 5.38 nM.
In the case of `CC1(C)C(=O)NCCN1C(=O)c1nn(-c2cc(Cl)cc(Cl)c2)c2c1CCc1ccc(-c3cncc(C(N)=O)c3)cc1-2` [Compound 15-04, 5-[1-(3,5-dichlorophenyl)-3-(2,2-dimethyl-3-oxo-piperazine-1-carbonyl)-4,5-dihydrobenzo[g]indazol-8-yl]pyridine-3-carboxamide], the half-inhibitory concentration (IC50) is 381 nM.
With `COc1cc2c(cc1-c1cncc(C(N)=O)c1)-c1c(c(C(=O)N3CCOCC3(C)C)nn1-c1ccncn1)CC2` [Compound 10-10] the figure was 14.8 nM.
For `CCn1nc(C(=O)N2CCOCC2(C)C)c2c1-c1cc(-c3cncc(C(N)=O)c3)c(OC)cc1CC2` [Compound 9-11], the concentration for half-maximal inhibition (IC50) is 830 nM.
With `CCN(C)C(=O)c1nn(-c2cc(Cl)cc(Cl)c2)c2c1CCc1cc(OC)c(-c3cncc(C(N)=O)c3)cc1-2` [Compound 8-34] the figure was 13.4 nM.
On to `COc1cc(C(N)=O)cc(-c2cc3c(cc2OC)COc2c(C(=O)N(C)C(C)(C)C)nn(-c4cc(Cl)cc(Cl)c4)c2-3)n1` [Compound 11-02, N-tert-butyl-8-(4-carbamoyl-6-methoxy-2-pyridyl)-1-(3,5-dichlorophenyl)-7-methoxy-N-methyl-5H-isochromeno[4,3-c]pyrazole-3-carboxamide], for which the IC50 is 42 nM.
For the compound `COc1cc2c(cc1-c1cncc(C(N)=O)c1)-c1c(c(C(=O)N3[C@H](C)CNC[C@@H]3C)nn1-c1cc(Cl)cc(Cl)c1)SC2` [Compound 12-13], the IC50 is 4.98 nM.
Consider `COc1cc2c(cc1-c1cncc(C(N)=O)c1)-c1c(c(C(=O)N3CCOCC3(C)C)nn1-c1ccsc1)OC2` [Compound 2-03], for which the IC50 worked out at 22 nM.
With `COc1cc2c(cc1-c1cncc(C(N)=O)c1)-c1c(c(C(=O)N(C)C(C)C)nn1-c1cc(Cl)cc(Cl)c1)CC2` [Compound 8-36] the figure was 4.17 nM; with `CCN(CC)C(=O)c1nn(-c2cc(Cl)cc(Cl)c2)c2c1CCc1cc(OC)c(-c3cncc(C(N)=O)c3)cc1-2` [Compound 8-35], 3.99 nM; with `COc1cc2ccc3c(C(=O)N(C)C(C)(C)C)nn(-c4cc(Cl)cc(Cl)c4)c3c2cc1-c1cncc(C(N)=O)c1` [Compound 6-06, N-tert-butyl-8-(5-carbamoyl-3-pyridyl)-1-(3,5-dichlorophenyl)-7-methoxy-N-methyl-benzo[g]indazole-3-carboxamide], 13.6 nM.
For the compound `COc1cc2oc3c(C(=O)N4CCOCC4(C)C)nn(-c4ccsc4)c3c2cc1-c1cncc(C#N)c1` [Compound 4-03B], the IC50 was determined as 2360 nM.
Take `COc1cc2c(cc1-c1cncc(C(N)=O)c1)-c1c(c(C(=O)N3CCNC(=O)C3(C)C)nn1-c1cccnn1)CC2` [Compound 15-06]: the half-maximal inhibitory concentration (IC50) was found to be 3620 nM.
Consider `COc1cc(Cl)cc(-n2nc(C(=O)N3CCOCC3(C)C)c3c2-c2cc(-c4cncc(C(N)=O)c4)c(OC)cc2CC3)c1` [Compound 9-20], for which the half-inhibitory concentration (IC50) amounted to 3.85 nM.
